Test [1] addresses human muscarinic M3 receptors (Homo sapiens (Human), UniProt P20309). Put plainly: Human muscarinic M3 receptor binding assay. Conditions: CHO-K1 cell membranes, [3H]-NMS radioligand. As to the method:
Test 2: Human Muscarinic M1, M2, M3, M4 and M5 receptors binding assays
The study of binding to human muscarinic M1, M2, M3, M4 and M5 receptors was performed using commercial membranes (Perkin Elmer) prepared from CHO-K1 cells. Radioligand binding experiments were conducted in 96 polypropylene well plates in a total volume of 200 μl. All reagents were dissolved in assay binding buffer (PBS with calcium and magnesium, SIGMA), except compounds that were dissolved in DMSO 100%. Non-specific binding (NSB) was measured in the presence of 1 μM atropine. [3H]-NMS was used as the radioligand at a concentration of 1 nM for M2, M3 and M5 and 0.3 nM for M1 and M4. [3H]-NMS and antagonists were incubated with membranes that express human muscarinic receptors M1, M2, M3, M4 and M5 at concentrations of 8.1, 10, 4.9, 4.5 and 4.9 μg/well, respectively.
After an incubation period of two hours with gentle shaking, 150 μl of the reaction mix were transferred to 96 GF/C filter plates (Millipore), previously treated with wash buffer (Tris 50 mM; NaCl 100 mM; pH: 7.4), containing 0.05% PEI (Sigma) during one hour. Bound and free [3H]-NMS were separated by rapid vacuum filtration in a manifold from Millipore and washed four times with ice cold wash buffer. After drying 30 min, 30 μl of OPTIPHASE Supermix were added to each well and radioactivity quantified using a Microbeta microplate scintillation counter.
The affinity of each test compound to the receptors was determined by using ten different concentrations ran in duplicate. IC50s were calculated using Activity Base software from IDBS and the four parameters-log equation.

Test [2] deals with human adrenergic beta2 receptors (Homo sapiens (Human), UniProt P07550). The test is described as follows: Human adrenergic β2 receptor binding assay. Conditions: Sf9 cell membranes, 3H-CGP12177 radioligand. How it is done:
Test 1: Human Adrenergic β1 and β2 Receptor Binding Assays
The study of binding to human adrenergic beta1 and beta2 receptors was performed using commercial membranes prepared from Sf9 cells where they are overexpressed (Perkin Elmer). The membrane suspensions (16 μg/well for beta1 and 5 μg/well for beta2) in assay buffer (75 mM Tris/HCl with 12.5 mM MgCl2 and 2 mM EDTA pH=7.4) were incubated with 0.14 or 0.6 nM of 3H-CGP12177 (Amersham) for beta 1 and beta 2 receptors respectively in a final volume of 250 μl, in GFC Multiscreen 96 well plates (Millipore) previously treated with assay buffer containing 0.3% PEI (Sigma). Non specific binding was measured in the presence of 1 μM propanolol. Incubation was maintained for 60 minutes at room temperature and with gentle shaking. The binding reactions were terminated by filtration and washing with 2.5 volumes of Tris/HCl 50 mM pH=7.4. The affinity of each test compound to the receptor was determined by using ten different concentrations ran in duplicate. IC50s were calculated using Activity Base software from IDBS and the four parameters-log equation.

Sequence of human muscarinic M3 receptors (P20309 whole entry): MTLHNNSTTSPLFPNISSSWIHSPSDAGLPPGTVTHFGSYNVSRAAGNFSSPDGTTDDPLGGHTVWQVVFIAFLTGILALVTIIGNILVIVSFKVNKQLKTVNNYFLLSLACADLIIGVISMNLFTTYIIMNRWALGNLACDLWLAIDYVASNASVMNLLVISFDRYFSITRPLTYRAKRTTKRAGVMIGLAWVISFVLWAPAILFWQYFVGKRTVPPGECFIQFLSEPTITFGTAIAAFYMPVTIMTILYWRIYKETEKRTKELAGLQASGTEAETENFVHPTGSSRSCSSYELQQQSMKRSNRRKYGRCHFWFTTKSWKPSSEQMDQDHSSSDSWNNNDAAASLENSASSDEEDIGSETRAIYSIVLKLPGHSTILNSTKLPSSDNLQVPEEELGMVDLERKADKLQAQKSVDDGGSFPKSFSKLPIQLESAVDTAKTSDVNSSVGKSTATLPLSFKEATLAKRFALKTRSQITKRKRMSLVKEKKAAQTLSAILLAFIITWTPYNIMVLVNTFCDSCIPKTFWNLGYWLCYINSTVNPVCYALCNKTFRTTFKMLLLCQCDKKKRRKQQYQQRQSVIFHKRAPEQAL

For orientation: IC50 means the concentration that gives 50% inhibition. In the case of `COc1cc(-c2noc(CCCN(C)[C@H]3CC[C@H](OC(=O)C(O)(c4cccs4)c4cccs4)CC3)n2)c(Cl)cc1CNC[C@H](O)c1ccc(O)c2[nH]c(=O)ccc12` (relative stereo) [Example 9, trans-4-[(3-{3-[2-chloro-4-({[(2R)-2-hydroxy-2-(8-hydroxy-2-oxo-1,2-dihydroquinolin-5-yl)ethyl]amino}methyl)-5-methoxyphenyl]-1,2,4-oxadiazol-5-yl}propyl)(methyl)amino]cyclohexylhydroxy(di-2-thienyl)acetate dihydrofluoride], the results for the IC50 in test [1] and in test [2] were 0.2 nM and 2.2 nM, respectively.

`CN(CCCn1c(=O)oc2cc(CCNC[C@H](O)c3ccc(O)c4[nH]c(=O)ccc34)ccc21)[C@H]1CC[C@H](OC(=O)C(O)(c2cccs2)c2cccs2)CC1` (relative stereo) [Example 19, trans-4-[{3-[6-(2-{[(2R)-2-hydroxy-2-(8-hydroxy-2-oxo-1,2-dihydroquinolin-5-yl)ethyl]amino}ethyl)-2-oxo-1,3-benzoxazol-3(2H)-yl]propyl}(methyl)amino]cyclohexylhydroxy(di-2-thienyl)acetate dihydrofluoride]: the IC50 amounted to 0.8 nM in test [1] and 62 nM in test [2].

Take `CC(Cc1ccc(OCC(=O)NCCN[C@H]2CC[C@H](OC(=O)C(O)(c3cccs3)c3cccs3)CC2)cc1)NC[C@H](O)c1ccc(O)c2[nH]c(=O)ccc12` (relative stereo) [Example 20]: the IC50 was 3.6 nM in test [1] and 3.1 nM in test [2].

On to “trans-4-[(3-{3-[4-({[(2R)-2-hydroxy-2-(8-hydroxy-2-oxo-1,2-dihydroquinolin-5-yl)ethyl]amino}methyl)phenyl]-1,2,4-oxadiazol-5-yl}propyl)(methyl)amino]cyclohexylhydroxy(di-2-thienyl)acetate dihydrofluoride [Example 5]”, for which the figures for the IC50 in test [1] and in test [2] were 0.4 nM and 2.7 nM, respectively.

Regarding “trans-4-[{3-[5-({[(2R)-2-hydroxy-2-(8-hydroxy-2-oxo-1,2-dihydroquinolin-5-yl)ethyl]amino}methyl)-2-oxo-2,3-dihydro-1H-benzimidazol-1-yl]propyl}(methyl)amino]cyclohexylhydroxy(di-2-thienyl)acetate dihydrofluoride [Example 2]”, the IC50 is 0.4 nM in test [1] and 120 nM in test [2].

Regarding “trans-4-[{3-[6-({[(2R)-2-hydroxy-2-(8-hydroxy-2-oxo-1,2-dihydroquinolin-5-yl)ethyl]amino}methyl)-2-oxo-1,3-benzothiazol-3(2H)-yl]propyl}(methyl)amino]cyclohexylhydroxy(di-2-thienyl)acetate dihydrofluoride [Example 11]”, the IC50 in test [1] is 0.5 nM; in test [2], 4.2 nM.

Values taken from patent US9233108B2 (ALMIRALL, S.A., priority 2011, dated 2016).
